Values quoted from earlier work in patent US6350369B1, “Method and system for determining analyte activity” (California Institute of Technology, priority 1998, dated 2002).

Tested on: cytochrome P-450
Conditions: cytochrome P-450 aniline p-hydroxylation inhibition, in words

OCc1ccccc1 [benzyl alcohol]
inhibitory activity compared with QSAR prediction: higher activity than is predicted
